Measurements published in patent US8530183B2, “Zinc sensors for cellular imaging” (The Board of Regents of the University of Texas System, priority 2010, dated 2013).

Legend:
INS-1 cells = assay: Response of membrane-anchored ZIMIR to extracellular Zn2+ and decay upon Zn2+ washout; type: cell-based, rat
Description: FIGS. 5A-B. Membrane anchored ZIMIR reports changes of [Zn^2+]e. (FIG. 5A) Example fluorescence images (Excitation 488±7.5 nm, emission 530±20 nm) of INS-1 cells labeled with ZIMIR at different [Zn^2+]e. (FIG. 5B) Quantification of the average ZIMIR fluorescence intensity along the plasma membrane (IZIMIR(PM)).
(FIG. 7A) Time courses of IZIMIR(PM) decay after washing INS-1 cells (initially bathed in FIBS containing 1 μM Zn^2+) with HBS containing EDTA (10 μM) and DPAS (0-8 μM). (FIG. 7B) ZIMIR imaging of insulin/Zn^2+ release of MIN6 cells bathed in SAB containing EDTA (10 μM) and DPAS (4 μM). Time courses of IZIMIR(PM) fluctuation of four separate regions of interest (ROI 1-4) and example ZIMIR images at different time points were shown (a-e; arrow heads highlighting local ZIMIR increases in separate ROIs at different time).
To characterize the response of membrane anchored ZIMIR to changes of extracellular Zn^2+ concentration ([Zn^2+]), the inventors varied [Zn^2+]e from low nanomolar to micromolar, using Zn^2-1 buffers containing nitrilotriacetic acid (for [Zn^2+]e<100 nM) (Hirano et al., 2000) or histidine (for [Zn^2+]e. 100 nM) (Hauser and Tsien, 2007). After recording fluorescence images at different [Zn^2+]e levels, the inventors washed cells with a nominally Zn^2+ free SAB containing 0.2 mM DPAS and followed the decay of IZIMIR(PM).
Upon membrane depolarization, ZIMIR signal increased immediately and reached a plateau before it gradually declined (FIGS. 6E-F). Unexpectedly, however, in some occasions, ZIMIR signal remained elevated even after the inventors lowered KCl concentration to the resting level (5 mM) (FIG. 9). […] In INS-1 beta cells labeled with ZIMIR, after recording ZIMIR fluorescence in solutions containing ˜1 μM of Zn2+, the inventors perifused cells with a nominally Zn^2+-free solution containing only EDTA (10 μM), or with both EDTA (10 μM) and different concentrations of DPAS.

MIN6 cells = assay: Epifluorescence ZIMIR imaging of KCl-stimulated insulin/Zn2+ release; type: cell-based, mouse; details: KCl 40 mM
Description: FIGS. 6A-E. ZIMIR imaging of insulin/Zn^2+ release. (FIGS. 6A-E) KCl stimulated insulin/Zn^2+ release in MIN6 cells. Example images of MIN6 cells (FIG. 6A, DIC/Normasky) before (FIG. 6B) and after KCl (40 mM, C) or Zn^2+ addition (1 μM, D). Time courses of ZIMIR signal changes (F/F0) in two example regions of interest (ROI, indicated in D by dashed lines) along the plasma membrane.
Cell culture and ZIMIR imaging by wide field fluorescence microscopy. Details of cell culture are described below. For cell imaging, we cultured cells in 35 mm petri dishes with glass-bottoms (MatTek, Ashland, Mass.). […] To image insulin/Zn^2+ secretion, we routinely included 10 μM of EDTA in SAB to chelate the residual Zn^2+ and to reduce the baseline fluorescence. […]
Membrane ZIMIR fluorescence intensity was measured by drawing regions of interest (ROIs) along the plasma membrane, and its time course was normalized against its baseline value after background subtraction, i.e., (F-Fbkg)/(F0-Fbkg), where Fbkg is the average background fluorescence intensity of a nearby area containing no cells. […] Wide field fluorescence microscopy was carried out on inverted fluorescence microscopes as described (Guo et al., 2008).
ZIMIR imaging by wide field fluorescence microscopy. […]

CCCCCCCCCCCCN(CC(=O)O)Cc1c2oc3c(CN(CCCCCCCCCCCC)CC(=O)O)c(O)ccc3c(-c3cc(NCCN(CCc4ccccn4)Cc4ccccn4)ccc3C(=O)O)c-2ccc1=O [ZIMIR]
decaying half lifetime of membrane ZIMIR signal upon Zn^2+ washout (INS-1 cells; INS-1 cells, EDTA 10 μM only, absence of DPAS): 2.723 min
ZIMIR fluorescence along the plasma membrane (IZIMIR(PM)) versus [Zn^2+]e (INS-1 cells; [Zn^2+]e varied from nanomolar to micromolar): stepwise increase with incremental level of [Zn^2+]e
ZIMIR fluorescence change upon KCl stimulation (MIN6 cells): robust enhancement in ZIMIR fluorescence
